According to patent US9511107B2, “Phenolic compositions derived from apple skin and uses thereof” (priority 2010, dated 2016):

Experiments:
primary cortical neurons = assay: LDH release of primary cortical neurons subjected to oxygen glucose deprivation (OGD); type: cell-based, mouse; conditions: comparison with F4; concentration not given
Experimental: Lactate dehydrogenase is a stable cytosolic enzyme that is released by necrotic cells upon membrane damage. The membrane integrity of cortical neurons was assayed by measuring the release of lactate dehydrogenase (LDH) using the Cytotoxicity Detection Kit^PLUS (Roche Applied Science). This assay kit detects LDH released into culture supernates by a coupled enzymatic reaction. Positive (100% LDH release) and negative (spontaneous LDH release) controls were prepared in triplicate according to the manufacturer's instructions. Primary cortical neuron cultures were prepared from cerebral cortices of embryonic day 16 CD1 mouse embryos. Cortical neuron cultures were exposed to vehicle (0.1% dimethyl sulfoxide (DMSO)) or F4 at concentrations of 1, 0.1 or 0.01 μg/mL in serum-free conditions for a period of 12 h before they were subjected to oxygen glucose deprivation (OGD). The neurons were exposed to vehicle or F4 at concentrations of 1, 0.1 or 0.01 μg/mL phenolics throughout the 12 h period of OGD. Following, cell culture supernates were collected for determination of released LDH. Absorbance was measured at 490 nm with a reference wavelength of 620 nm. Percentage of total LDH release was calculated by following the instructions provided by the manufacturer. Background was subtracted and LDH release in each sample was expressed as a percentage of the positive control.

[1] = humans, 1 g per day for 1 month; cited from earlier work

Row | Structure (SMILES) | reduction of death of primary cortical neurons subjected to OGD (F4 components and metabolites, FIG. 7) (primary cortical neurons) | safety [1]
1 | O=c1c(O[C@@H]2O[C@H](CO)[C@@H](O)[C@H](O)[C@H]2O)c(-c2ccc(O)c(O)c2)oc2cc(O)cc(O)c12 [Fraction Q3G, quercetin 3-O-glucoside] | no significant reduction | 
2 | COc1cc(-c2oc3cc(O)cc(O)c3c(=O)c2O[C@@H]2O[C@H](C(=O)O)[C@@H](O)[C@H](O)[C@H]2O)ccc1O [IR3GlcA] | no significant reduction | 
3 | O=c1c(O)c(-c2ccc(O)c(O)c2)oc2cc(O)cc(O)c12 [Q, Quercetin] | no significant reduction | safe
